Test results: ChEMBL document CHEMBL4118204, “Antidiabetic potential of phytochemicals isolated from the stem bark of Myristica fatua Houtt. var. magnifica (Bedd.) Sinclair” (Bioorg Med Chem, 2018)

How the values were obtained:
Pancreatic alpha-amylase = molecular target: T1, Pancreatic alpha-amylase (Sus scrofa, UniProt P00690); experiment: Inhibition of porcine pancreatic alpha-amylase using starch as substrate after 30 mins by iodine reagent based assay
T1 sequence (P00690 whole entry): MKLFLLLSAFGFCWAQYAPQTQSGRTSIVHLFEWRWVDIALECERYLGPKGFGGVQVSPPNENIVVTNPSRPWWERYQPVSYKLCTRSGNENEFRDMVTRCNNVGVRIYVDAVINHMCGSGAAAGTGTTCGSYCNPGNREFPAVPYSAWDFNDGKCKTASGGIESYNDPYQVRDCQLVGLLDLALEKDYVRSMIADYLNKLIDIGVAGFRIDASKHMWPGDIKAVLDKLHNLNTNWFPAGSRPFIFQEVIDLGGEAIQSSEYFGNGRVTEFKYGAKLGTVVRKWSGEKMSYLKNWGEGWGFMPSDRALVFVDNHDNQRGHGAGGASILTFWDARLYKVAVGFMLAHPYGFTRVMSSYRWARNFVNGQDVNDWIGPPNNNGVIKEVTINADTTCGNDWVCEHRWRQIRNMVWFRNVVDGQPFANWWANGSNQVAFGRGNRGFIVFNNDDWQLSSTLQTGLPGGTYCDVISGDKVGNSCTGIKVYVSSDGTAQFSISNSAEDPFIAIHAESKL

[1] = Inhibition of rat intestinal alpha-glucosidase using p-nitrophenyl alpha-D-glucopyranoside as substrate pretreated for 10 mins followed by substrate addition measured after 5 mins
Albumin = Albumin (Bos taurus, UniProt P02769); experiment: Antiglycation activity in bovine serum albumin assessed as inhibition of advanced glycated end product formation after 24 hrs in presence of alpha-D-glucose by fluorescence assay
L6 [2] = experiment: Antidiabetic activity in rat L6 cells assessed as effect on 2-NBDG uptake at 10 uM pretreated for 24 hrs followed by 2-NBDG addition after 30 mins by FACS (reference value: 20%); assay type: functional
L6 [3] = experiment: Antidiabetic activity in rat L6 cells assessed as effect on 2-NBDG uptake at 25 uM pretreated for 24 hrs followed by 2-NBDG addition after 30 mins by FACS (reference value: 20%); assay type: functional
L6 [4] = experiment: Antidiabetic activity in rat L6 cells assessed as effect on 2-NBDG uptake at 50 uM pretreated for 24 hrs followed by 2-NBDG addition after 30 mins by FACS (reference value: 20%); assay type: functional
L6 [5] = experiment: Antidiabetic activity in rat L6 cells assessed as increase in 2-NBDG uptake pretreated for 24 hrs followed by 2-NBDG addition after 30 mins by FACS; assay type: functional, cell-based
L6 [6] = experiment: Cytotoxicity against rat L6 cells up to 50 uM after 24 hrs by MTT assay; assay type: cell-based; conditions: l6, 24 h
L6 [7] = experiment: Antidiabetic activity in rat L6 cells assessed as effect on 2-NBDG uptake at 100 uM pretreated for 24 hrs followed by 2-NBDG addition after 30 mins by FACS (reference value: 20%); assay type: functional

Sequence of Albumin (P02769 whole entry): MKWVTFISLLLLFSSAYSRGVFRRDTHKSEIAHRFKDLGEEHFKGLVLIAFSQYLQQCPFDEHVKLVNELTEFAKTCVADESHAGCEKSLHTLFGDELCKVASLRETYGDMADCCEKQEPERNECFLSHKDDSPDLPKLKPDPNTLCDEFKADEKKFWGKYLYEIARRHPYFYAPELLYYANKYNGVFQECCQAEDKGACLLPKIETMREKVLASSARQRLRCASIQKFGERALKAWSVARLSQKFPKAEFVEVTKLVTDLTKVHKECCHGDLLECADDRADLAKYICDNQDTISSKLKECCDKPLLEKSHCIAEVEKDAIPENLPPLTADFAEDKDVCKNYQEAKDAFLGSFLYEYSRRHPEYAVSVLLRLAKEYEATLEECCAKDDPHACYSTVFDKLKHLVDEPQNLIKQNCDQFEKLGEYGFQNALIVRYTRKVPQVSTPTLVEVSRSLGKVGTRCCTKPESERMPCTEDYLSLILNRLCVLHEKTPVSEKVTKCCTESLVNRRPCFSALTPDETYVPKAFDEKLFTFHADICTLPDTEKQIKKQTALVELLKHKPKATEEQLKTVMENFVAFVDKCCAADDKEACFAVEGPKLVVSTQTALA

IC50 (Pancreatic alpha-amylase)	IC50 [1]	IC50 (Albumin)	Compound	Activity (L6 [2])	Activity (L6 [3])	Activity (L6 [4])	Activity (L6 [5])	Activity (L6 [6])	Activity (L6 [7])
12.9 µM	63.7 µM	40.3 µM	O=C(CCCCCCCCc1ccc(O)cc1)c1c(O)cccc1O [MALABARICONE B]	37.5%	45.8%	52.7%	Dose-dependent effect	–	–
74.1 µM	172 µM	121 µM	CCCCCCCCCCCCCC(=O)c1c(O)cccc1O	32.9%	34.1%	36.3%	Dose-dependent effect	Non-Toxic	–
–	66.6 µM	–	C[C@H]1O[C@H](O[C@H]2[C@H](O)[C@@H](O)[C@@H](O[C@H]3[C@H](O)[C@@H](O)C(O)O[C@@H]3CO)O[C@@H]2CO)[C@H](O)[C@@H](O)[C@@H]1N[C@H]1C=C(CO)[C@@H](O)[C@H](O)[C@H]1O (some centres not stated) [ACARBOSE]	–	–	–	–	–	–
36.6 µM	372 µM	411 µM	CCCCCCCCCCCCC(=O)c1cccc(C(=O)O)c1	17%	22.5%	31.5%	Dose-dependent effect	Non-Toxic	–

Further lines, the compound ahead of its results:

Compound	IC50 (Pancreatic alpha-amylase)	IC50 [1]	IC50 (Albumin)	Activity (L6 [2])	Activity (L6 [3])	Activity (L6 [4])	Activity (L6 [5])	Activity (L6 [6])	Activity (L6 [7])
COc1cccc(O)c1C(=O)CCCCCCCCc1ccc(O)cc1	32.3 µM	94.5 µM	104 µM	18.3%	34.1%	34.6%	Dose-dependent effect	Non-Toxic	–
O=C(CCCCCCCCc1ccccc1)c1c(O)cccc1O [MALABARICONE A]	19.1 µM	91.4 µM	19.3 µM	32.9%	33.4%	36.7%	Dose-dependent effect	Non-Toxic	–
O=C(CCCCCCCCc1ccc(O)c(O)c1)c1c(O)cccc1O [MALABARICONE C]	10.6 µM	43.6 µM	15 µM	17%	18.3%	23.9%	Dose-dependent effect	Non-Toxic	–
CN(C)C(=N)NC(=N)N [METFORMIN]	–	–	–	–	–	–	–	–	36.6%
CCCCCCCCCCCCCC(=O)c1c(O)cccc1OC	39 µM	257 µM	192 µM	21.2%	28%	34.7%	Dose-dependent effect	Non-Toxic	–
